Data set [1] concerns Multiple myeloma cells (RPMI 8226). Nature of the data set: MTS cell viability of multiple myeloma cells treated with bortezomib with or without AS-7. In kind it is cell-based. How it is done: Multiple myeloma cells (RPMI 8226) were seeded in a 96 well tissue culture plate (2000 cells per well). The compounds, 10 μM AS-7 and bortezomib at the concentrations indicated in […], were added the following day. AS-7 was prepared as described in Example I above. After 48 hours, MTS was added and absorbance was measured at 490 nm. […] Values in FIG. 2 are relative controls that contained only the vehicle in which the drugs were dissolved. Vehicle had no effect on cell viability. Error bars in FIG. 2 are not visible if they are smaller than the symbols.

Data set [2] has as its system ovarian A2780 cells. Nature of the data set: Crystal violet cell viability of ovarian A2780 cells, bortezomib with or without AS-7 (72 hours). Format: cell-based, human. As to conditions: A2780 cells; 10 μM AS-7. How it is done: Ovarian tumor-derived cell lines, IGROV and A2780, were seeded in a 96 well tissue culture plate (2000 cells per well). The compounds, 10 μM AS-7 and bortezomib (BioVision, Inc., Milpitas, Calif.) at the concentrations indicated in the figures, were added the following day. AS-7 was prepared as described in Example I above. […] Values are relative to cells that with the vehicle in which the drugs were dissolved. Vehicle had no effect on cell viability. Error bars in FIG. 6 and FIG. 7 are not shown if they are smaller than the symbols.

Data set [3] relates to Melanoma A2620 cells. Nature of the data set: Crystal violet cell viability of melanoma A2620 cells, bortezomib with or without AS-7 (72 hours). In kind it is cell-based, human. As to conditions: 10 μM AS-7. How it is done: Melanoma A2620 cells were seeded in a 96 well tissue culture plate (2000 cells per well). The compounds, 10 μM AS-7 and bortezomib at the concentrations indicated in FIG. 8 were added the following day. […] Values are relative to controls that contained only the vehicle in which the drugs were dissolved. Vehicle had no effect on cell viability.

The test system of data set [4] is T47D cells. Nature of the data set: MTS cell viability of breast cancer T47D cells, bortezomib with or without AS-7. In kind it is cell-based, human. The note with it: 10 μM AS-7, data not shown. How it is done:
Breast cancer derived cell lines, T47D and 159C, were seeded in a 96 well tissue culture plate (2000 cells per well). The significance of these two lines of breast cancer derived cell lines is that the T47D cells positive for three markers used to optimize the chemotherapeutic treatment, namely HER2 receptor, estrogen receptor, and progesterone receptor. By contrast to the T47D cells, the 159C cells are negative for the three markers. The compounds, 10 μM AS-7 and a range of bortezomib (BioVision, Inc., Milpitas, Calif.) concentrations were added the following day. After 48 hours, MTS was added and absorbance was measured at 490 nm.

Data set [5] concerns ovarian A2780 cells. Nature of the data set: Cell proliferation (growth rate, crystal violet) of ovarian A2780 cells with AS-7 by itself. In kind it is cell-based, human. As to conditions: 10 μM AS-7, vehicle doubling time 1.0 days. How it is done: (§1) To examine the effect of AS-7 on the growth of several different cell lines, AS-7 at 10 μM was added to the culture medium the day after seeding the cells. The following cell lines were used to determine the effect of AS-7 on the rate of proliferation: HeLa, melanoma A2620, ovarian A2780, and breast T47D. All cell line were grown in culture medium (RPMI 1640 for the breast cancer cells and Dulbecco's modified Eagle's medium for the other cell lines) containing 10% heat inactivated fetal bovine serum without antibiotics (penicillin and streptomycin). […] The doubling times in HeLa, melanoma, ovarian and breast cancer derived cells were 0.9, 2.5, 1.0, and 1.4 days, respectively. AS-7 increased the doubling times of the HeLa, melanoma, ovarian, and breast cancer derived cells by 1.3, 1.3, 1.6, and 3.1 fold, respectively (FIGS. 11 through 14).

Data set [6] has as its system breast T47D cells. Nature of the data set: Cell proliferation (growth rate, crystal violet) of breast T47D cells with AS-7 by itself. In kind it is cell-based, human. As to conditions: 10 μM AS-7, vehicle doubling time 1.4 days. How it is done: as §1
Data set [7] deals with HeLa cells. Nature of the data set: FACS analysis after propidium iodide staining (cell cycle, apoptosis) of HeLa cells. In kind it is cell-based, human. How it is done: FIG. 15 illustrates that AS-7 evokes accumulation HeLa cells in the G0-G1 phase of the cell cycle. HeLa cells were harvested two days after treatment with or without AS-7, stained with propidium iodide and subjected to analysis by FACS (Fluorescence Activated Cell Sorter).
FIG. 17 illustrates that AS-7 blocks exit from the Go-G1 phase of the cell cycle. HeLa cells were treated with nocodazole which evoked accumulation of the cells in the G2-M phase of the cell cycle (Nocodazole Blocked). The cells were released from the nocodazole block and treated with or without AS-7. After 16 hours the cells were stained with propidium iodide and subjected to analysis by FACS (Fluorescence Activated Cell Sorter).
The appearance of essentially all of the AS-7 treated cells was indistinguishable from that of the untreated cells.
(§2) A single addition of 10 μM AS-7 for 1 day to 7 or more days was sufficient to evoke accumulation in the Go-G1 phase of the cell cycle (FIGS. 15 and 16) (data not shown). […] HeLa cells were treated with nocodazole (100 ng/ml) for 12 h which evoked accumulation of rounded, loosely attached cells in mitosis. The mitotic cells were harvested and treated with or without 10 μM AS-7 in the absence of nocodazole (Released, 16 hours).

The test system of data set [8] is breast T47D cells. Nature of the data set: FACS cell cycle analysis after propidium iodide staining of breast T47D cells. In kind it is cell-based, human. As to conditions: 10 μM AS-7. How it is done:
FIG. 16 illustrates that AS-7 evokes accumulation of breast T47D cells in the G0-G1 phase of the cell cycle. T47D cells were harvested one, two, or three days after treatment with or without AS-7, stained with propidium iodide and subjected to analysis by FACS (Fluorescence Activated Cell Sorter).
as §2

For data set [9], the system named is HeLa cells. Nature of the data set: Glucose utilization and acid production in HeLa cell culture medium. In kind it is cell-based, human. As to conditions: 10 μM AS-7, after 5 days. How it is done: FIG. 19 illustrates that AS-7 increases glucose utilization and acid production in HeLa cells. HeLa cells were cultured (100 mm diameter plates) in medium containing 4.5 mg/ml glucose at pH 7.4. After 5 days medium glucose was determined by standard methodology and the pH of the medium was measured with a pH meter.
Because it was repeatedly observed that AS-7 by itself decreased the pH of the culture medium, it was hypothesized that AS-7 might stimulate glucose utilization and the production of lactic acid, which is a major acidic product of glucose metabolism. HeLa cells were cultured in 100 millimeter diameter tissue culture plates in order to monitor the pH and the glucose concentration of the culture medium. Glucose was quantified with a glucose test strip and meter, as commonly used to monitor fluctuations in blood glucose. A pH meter was used to record the pH of the medium. Control cultures (“Control”) were treated with the appropriate amount of the vehicle used dissolve AS-7. Treated cultures (“AS-7”) incubated with 10 μM AS-7.

For data set [10], the system named is proteasome. Nature of the data set: Proteasome activity measured in lysates of treated cells. Format: cell-based. The text has this:
The cytotoxic action of bortezomib is known to be mediated by proteasome inhibition and the induction of apoptosis.

The values that follow come from patent US20150038541A1, “COMPOSITION AND METHODS FOR CELL MODULATION” (APOSIGNAL BIOSCIENCE LLC, priority 2012, published 2015).

Turning to `N#Cc1cccc(C(C(=O)NCC(c2ccccc2)c2ccccc2)N(CCc2c[nH]cn2)C(=O)c2ccccc2C(=O)c2ccccc2)c1` (stereo not drawn) [AS-7], in [1] (10 μM AS-7, 48 hours, MTS), the “potentiation of the cytotoxic action of bortezomib (loss of multiple myeloma cell viability)” value is reported as “markedly potentiates”. Besides, in data set [1] (FIG. 2 as printed (multiple myeloma cells)), the “increased potency of the cytotoxic action of bortezomib upon the addition of AS-7” value is reported as “approximately 3.5 fold”. Besides, the “increase in potency of the cytotoxic action of bortezomib by AS-7” value in [2] was “approximately 3.1 fold”; in data set [3], “approximately three”. The “potentiation of the cytotoxic action of bortezomib” value in [4] was “markedly potentiated”. Also, the “increase of doubling time” value in [5] was 1.6 fold; in data set [6], 3.1 fold. The “induction of apoptosis (FACS, propidium iodide)” value in data set [7] (HeLa cells treated with AS-7 for several days, data not shown) is “failed to induce apoptosis”. Moreover, the “cell cycle distribution (FACS, propidium iodide)” value in data set [7] (HeLa cells, 10 μM AS-7) is “evoked the accumulation”; in [8], “evoked the accumulation”. Besides, in data set [7] (HeLa cells, 10 μM AS-7, 16 hours after release), the “cell cycle progression after release from nocodazole block” value is “blocked exit from the G0-G1 phase”. Further, the “glucose concentration of the culture medium relative to control” value in data set [9] is reported as “significantly decreased”. Moreover, the “pH of the culture medium relative to control” value in data set [9] is given as “significantly decreased”. For the same compound, the “effect on proteasome activity” value in data set [10] (cells treated with 10 ILIM AS-7 alone for various times) was “no effect”. Besides, in [10] (data not shown), the “effect of AS-7 on proteasome inhibition by bortezomib” value is listed as “did not increase”.
